One experiment concerns the target PKA (Homo sapiens, UniProt P17612). Briefly: PKA inhibition assay, coupled enzyme. The settings on record: average Ki if more than one determined. Type of experiment: biochemical. In outline: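 Coupled PK/LDH assay following NADH depletion: 18 nM PKA, 50 μM ATP, 80 μM Kemptide in 100 mM HEPES pH 7.5, 10 mM MgCl2, 25 mM NaCl, 1 mM DTT, 3% DMSO, at 30 °C. Compound preincubated 10 min before ATP start; initial rates over 15 min, IC50 and Ki by non-linear regression.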

In another experiment the target is ROCK I (AA 6-553) (Homo sapiens, UniProt Q13464). Briefly: ROCK inhibition assay, coupled enzyme system ("Enzyme"). In kind it is biochemical. The settings on record: enzyme-linked assay; average Ki if more than one determined. As to the method:
Reactions were carried out in a solution containing 100 mM HEPES (pH 7.5), 10 mM MgCl2, 25 mM NaCl, 2 mM DTT and 1.5% DMSO.
If more than one value of Ki has been determined, the average Ki is indicated. If no value is indicated, then the Ki was not determined.

The structures appear in SMILES notation. pKi: −log10 of the molar value.

58 compounds from patent US7514448B2, “Azaindoles useful as inhibitors of rock and other protein kinases” (Vertex Pharmaceuticals Incorporated, priority 2004, dated 2009) can be followed below.

Chain of ROCK I (AA 6-553) (Q13464 6-553, species assumed): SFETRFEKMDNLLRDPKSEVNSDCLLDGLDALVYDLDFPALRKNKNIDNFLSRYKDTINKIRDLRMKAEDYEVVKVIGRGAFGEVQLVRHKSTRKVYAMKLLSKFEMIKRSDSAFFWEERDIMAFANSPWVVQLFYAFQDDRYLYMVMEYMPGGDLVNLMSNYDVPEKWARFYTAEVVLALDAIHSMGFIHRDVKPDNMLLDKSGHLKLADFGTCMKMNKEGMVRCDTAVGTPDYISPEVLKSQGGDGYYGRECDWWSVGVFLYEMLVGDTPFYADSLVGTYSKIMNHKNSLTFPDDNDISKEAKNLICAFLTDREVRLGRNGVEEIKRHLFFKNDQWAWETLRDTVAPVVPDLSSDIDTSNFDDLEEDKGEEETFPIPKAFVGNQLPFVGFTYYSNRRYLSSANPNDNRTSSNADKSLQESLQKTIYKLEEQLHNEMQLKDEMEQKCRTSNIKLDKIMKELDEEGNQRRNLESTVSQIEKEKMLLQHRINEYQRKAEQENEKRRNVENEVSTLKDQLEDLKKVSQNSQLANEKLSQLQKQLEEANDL

In the case of `O=C(Cc1cc2c(cc1Cl)OCO2)N(c1nc(-c2c[nH]c3ncccc23)cs1)C1CC1` [II-88], the pKi on PKA and on ROCK I (AA 6-553) was greater than 6.30 in each case.
On to `O=C(Cc1cccc(S(=O)(=O)NC2CC2)c1)Nc1nc(-c2c[nH]c3ncccc23)cs1` [II-6], for which the pKi at PKA and at ROCK I (AA 6-553) was greater than 6.30 each time.
Turning to `COc1ccc(CC(=O)N(c2nc(-c3c[nH]c4ncccc34)cs2)C2CC2)c(Cl)c1` [II-75], the pKi at PKA and at ROCK I (AA 6-553) was greater than 6.30 in each case.
Turning to `O=C(Cc1ccccc1F)Nc1nc(-c2c[nH]c3nccc(F)c23)cs1` [II-11], the pKi on PKA and on ROCK I (AA 6-553) was greater than 6.30 throughout.
Take `O=C(Cc1cccc(S(=O)(=O)N2CCOCC2)c1)Nc1nnc(-c2c[nH]c3ncccc23)s1` [II-58]: the pKi at PKA and on ROCK I (AA 6-553) was 5.30 to 6.30 throughout.
For `CN1CCN(CCOc2cccc(CC(=O)N(c3nc(-c4c[nH]c5ncccc45)cs3)C3CC3)c2)CC1` [II-86], the pKi at PKA was 5.30 to 6.30; on ROCK I (AA 6-553) it was greater than 6.30.
Take `O=C(Cc1cccc(S(=O)(=O)N2CCOCC2)c1)Nc1cc(-c2c[nH]c3ncccc23)cs1` [II-59]: the pKi at PKA and at ROCK I (AA 6-553) was greater than 6.30 each time.
For `CN(c1cccc(CC(=O)Nc2nc(-c3c[nH]c4ncccc34)cs2)c1)S(C)(=O)=O` [II-113], the pKi on PKA and at ROCK I (AA 6-553) was greater than 6.30 throughout.
For the compound `COc1cccc(CC(=O)Nc2nc(-c3c[nH]c4nccc(Cl)c34)cs2)c1` [II-92], the pKi at PKA and on ROCK I (AA 6-553) was greater than 6.30 throughout.
Take `O=C(Cc1ccc(F)cc1)Nc1nc(-c2c[nH]c3nccc(F)c23)cs1` [II-12]: the negative logarithm of the Ki (pKi) at PKA and at ROCK I (AA 6-553) was greater than 6.30 throughout.
As to `CS(=O)(=O)Nc1cccc(CC(=O)Nc2nc(-c3c[nH]c4ncc(Cl)cc34)cs2)c1` [II-104], the pKi on PKA was 5.30 to 6.30; at ROCK I (AA 6-553), greater than 6.30.
The corresponding values for `O=C(NCc1ccc(F)cc1F)c1ccc(-c2c[nH]c3ncccc23)s1` [II-28] are greater than 6.30 and greater than 6.30.
For the compound `CS(=O)(=O)Nc1cccc(CC(=O)Nc2nc(-c3c[nH]c4nccc(F)c34)cs2)c1` [II-14], the pKi on PKA is 5.30 to 6.30; on ROCK I (AA 6-553) it was greater than 6.30.
For `Cc1sc(NC(=O)Cc2ccccc2)nc1-c1c[nH]c2ncccc12` [II-98] the same measures were 5.30 to 6.30 and greater than 6.30.
In the case of `CS(=O)(=O)Nc1cccc(CC(=O)Nc2nc(-c3c[nH]c4nccc(Cl)c34)cs2)c1` [II-94], the pKi at PKA and on ROCK I (AA 6-553) was greater than 6.30 in each case.
In the case of `CS(=O)(=O)c1ccc(CC(=O)Nc2nc(-c3c[nH]c4ncccc34)cs2)cc1` [II-74], the pKi at PKA is 5.30 to 6.30; at ROCK I (AA 6-553), greater than 6.30.
The corresponding values for `O=C(Cc1ccccc1F)Nc1nc(-c2c[nH]c3ncccc23)cs1` [I-3] are greater than 6.30 and greater than 6.30.
The corresponding values for `CC(=O)N1[C@H](C)CN(c2nc(-c3c[nH]c4ncc(Cl)cc34)cs2)C[C@@H]1C` [II-43] are 5.30 to 6.30 and 5.30 to 6.30.
Consider `O=C(Cc1cc2c(cc1Cl)OCO2)Nc1nnc(-c2c[nH]c3ncccc23)s1` [II-10], for which the pKi is 5.30 to 6.30 at PKA and greater than 6.30 at ROCK I (AA 6-553).
The corresponding values for `O=C(Cc1cc2c(cc1Cl)OCO2)Nc1nc(-c2c[nH]c3nccc(F)c23)cs1` [II-20] are greater than 6.30 and greater than 6.30.
For `O=C(Cc1cccc(OCCCC2CCNCC2)c1)Nc1nc(-c2c[nH]c3nccc(Cl)c23)cs1` [II-95] the same measures were greater than 6.30 and greater than 6.30.
The corresponding values for `O=C(Cc1cccc(S(=O)(=O)N2CCOCC2)c1)Nc1nc(-c2c[nH]c3ncccc23)cs1` [II-26] are 5.30 to 6.30 and greater than 6.30.
Take `COc1cccc(CC(=O)Nc2nnc(-c3c[nH]c4ncccc34)s2)c1` [I-21]: the pKi at PKA and on ROCK I (AA 6-553) was greater than 6.30 each time.
Consider `O=C(Cc1ccc2c(c1)OCO2)N(c1nc(-c2c[nH]c3ncccc23)cs1)C1CC1` [II-69], for which the pKi on PKA and on ROCK I (AA 6-553) was greater than 6.30 each time.
As for `O=C(Cc1cccc(O)c1)N(c1nc(-c2c[nH]c3ncccc23)cs1)C1CC1` [II-68], the pKi on PKA and on ROCK I (AA 6-553) was greater than 6.30 in each case.
Turning to `COc1cccc(CC(=O)Nc2nc(-c3c[nH]c4ncc(Br)cc34)cs2)c1` [II-77], the figures for the pKi on PKA and on ROCK I (AA 6-553) were 5.30 to 6.30 and greater than 6.30, respectively.
For `Cc1sc(NC(=O)Cc2cccc(S(=O)(=O)N3CCOCC3)c2)nc1-c1c[nH]c2ncccc12` [II-101] the same measures were 5.30 to 6.30 and 5.30 to 6.30.
The corresponding values for `CN1CCCN(S(=O)(=O)c2cccc(CC(=O)Nc3nc(-c4c[nH]c5ncccc45)cs3)c2)CC1` [II-52] are greater than 6.30 and greater than 6.30.
With `CS(=O)(=O)Nc1cccc(CC(=O)Nc2nnc(-c3c[nH]c4ncccc34)s2)c1` [II-9], the pKi on PKA and at ROCK I (AA 6-553) was greater than 6.30 each time.
With `O=C(Cc1ccccc1)Nc1nc(-c2c[nH]c3nccc(F)c23)cs1` [II-16], the pKi at PKA and on ROCK I (AA 6-553) was greater than 6.30 throughout.
`Nc1ccc(CC(=O)Nc2nc(-c3c[nH]c4ncccc34)cs2)c(Cl)c1` [II-34]: the pKi on PKA and at ROCK I (AA 6-553) was greater than 6.30 throughout.
Consider `O=C(Cc1cccc(S(=O)(=O)N2CCOCC2)c1)Nc1nc(-c2c[nH]c3ncc(Br)cc23)cs1` [II-107], for which the pKi on PKA was 5.30 to 6.30; at ROCK I (AA 6-553), greater than 6.30.
In the case of `COc1cccc(CC(=O)Nc2nc(-c3c[nH]c4nccc(F)c34)cs2)c1` [II-19], the pKi on PKA and at ROCK I (AA 6-553) was greater than 6.30 throughout.
For `COc1cccc(CC(=O)N(c2nc(-c3c[nH]c4ncccc34)cs2)C2CC2)c1` [II-70], the pKi at PKA and on ROCK I (AA 6-553) was greater than 6.30 each time.
Consider `NC(=O)c1cccc(CC(=O)Nc2nc(-c3c[nH]c4ncccc34)cs2)c1` [II-41], for which the pKi at PKA and on ROCK I (AA 6-553) was greater than 6.30 each time.
As to `CS(=O)(=O)Nc1cccc(CC(=O)Nc2csc(-c3c[nH]c4ncccc34)n2)c1` [II-46], the pKi at PKA and at ROCK I (AA 6-553) was greater than 6.30 throughout.
As for `O=C(Cc1ccc(F)cc1F)Nc1csc(-c2c[nH]c3ncccc23)n1` [II-56], the pKi at PKA and at ROCK I (AA 6-553) was greater than 6.30 throughout.
In the case of `O=C(Cc1ccc(F)cc1F)Nc1nnc(-c2c[nH]c3ncccc23)s1` [I-22], the pKi on PKA and on ROCK I (AA 6-553) was greater than 6.30 each time.
Take `O=C(Nc1csc(-c2c[nH]c3ncccc23)n1)c1ccccc1` [II-81]: the pKi at PKA was 5.30 to 6.30; on ROCK I (AA 6-553), greater than 6.30.
The corresponding values for `O=C(Cc1ccc(F)cc1F)Nc1nc(-c2c[nH]c3ncccc23)cs1` [I-6] are greater than 6.30 and greater than 6.30.
Regarding `O=C(Cc1cccc(OCCCN2CCNCC2)c1)Nc1nc(-c2c[nH]c3nccc(F)c23)cs1` [II-36], the pKi at PKA was 5.30 to 6.30; on ROCK I (AA 6-553), greater than 6.30.
As for `COc1cccc(CC(=O)Nc2nc(-c3c[nH]c4ncc(Cl)cc34)cs2)c1` [II-103], the pKi on PKA and at ROCK I (AA 6-553) was greater than 6.30 in each case.
For `O=C(NCc1ccccc1)c1ccc(-c2c[nH]c3ncccc23)s1` [II-29], the pKi at PKA and at ROCK I (AA 6-553) was greater than 6.30 throughout.
Regarding `O=C(NCc1cccc(S(=O)(=O)N2CCOCC2)c1)c1cc(-c2c[nH]c3ncccc23)cs1` [II-80], the pKi on PKA is 5.30 to 6.30; on ROCK I (AA 6-553) it was greater than 6.30.
For `COc1ccc(CC(=O)Nc2nc(-c3c[nH]c4ncccc34)cs2)c(Cl)c1` [I-18] the same measures were greater than 6.30 and greater than 6.30.
The corresponding values for `O=C(Cc1ccc(F)cc1)Nc1nc(-c2c[nH]c3ncccc23)cs1` [I-4] are greater than 6.30 and greater than 6.30.
For `COc1cccc(CC(=O)Nc2nc(-c3c[nH]c4ncccc34)c(C)s2)c1` [II-99] the same measures were 5.30 to 6.30 and greater than 6.30.
With `O=C(Cc1ccc(F)cc1F)Nc1nc(-c2c[nH]c3nccc(F)c23)cs1` [II-13], the pKi on PKA and at ROCK I (AA 6-553) was greater than 6.30 throughout.
As for `CCN(CC)S(=O)(=O)c1cccc(CC(=O)Nc2nc(-c3c[nH]c4nccc(F)c34)cs2)c1` [II-67], the pKi at PKA is 5.30 to 6.30; at ROCK I (AA 6-553), greater than 6.30.
The corresponding values for `O=C(Cc1cccc(S(=O)(=O)N2CCOCC2)c1)N(c1nc(-c2c[nH]c3ncccc23)cs1)C1CC1` [II-87] are greater than 6.30 and greater than 6.30.
In the case of `c1cnc2[nH]cc(-c3csc(NC4CC4)n3)c2c1` [II-3], the pKi at PKA and at ROCK I (AA 6-553) was 5.30 to 6.30 in each case.
For the compound `CN(C)CCNS(=O)(=O)c1cccc(CC(=O)Nc2nc(-c3c[nH]c4ncccc34)cs2)c1` [II-97], the pKi on PKA and at ROCK I (AA 6-553) was greater than 6.30 throughout.
For `CS(=O)(=O)Nc1ccc(CC(=O)Nc2nc(-c3c[nH]c4ncccc34)cs2)c(Cl)c1` [II-47], the pKi at PKA and on ROCK I (AA 6-553) was greater than 6.30 throughout.
Turning to `CS(=O)(=O)Nc1cccc(CC(=O)N(c2nc(-c3c[nH]c4ncccc34)cs2)C2CC2)c1` [II-27], the pKi at PKA and at ROCK I (AA 6-553) was greater than 6.30 each time.
On to `O=C(Cc1cccc(OCCCn2ccnc2)c1)Nc1nc(-c2c[nH]c3nccc(F)c23)cs1` [II-38], for which the pKi is 5.30 to 6.30 at PKA and greater than 6.30 at ROCK I (AA 6-553).
For `O=C(Cc1ccc(F)cc1)Nc1csc(-c2c[nH]c3ncccc23)n1` [II-61] the same measures were greater than 6.30 and greater than 6.30.
Consider `CS(=O)(=O)Nc1cccc(CC(=O)Nc2nc(-c3c[nH]c4ncc(Br)cc34)cs2)c1` [II-78], for which the pKi at PKA is 5.30 to 6.30; at ROCK I (AA 6-553), greater than 6.30.
For `O=C(Cc1cccc(S(=O)(=O)N[C@H]2CCOC2)c1)Nc1nc(-c2c[nH]c3ncccc23)cs1` [II-42] the same measures were greater than 6.30 and greater than 6.30.

By pKi is commonly meant the Ki on a negative log10 scale, so that one unit is a factor of ten. Lower therefore signals a large Ki.
